This note sets out measurements from US20170008888A1 (KYORIN PHARMACEUTICAL CO., LTD., priority 2014, published 2017).

Where two headings read alike, the source gives them in different places. Some results are limits rather than exact numbers.

In one assay the test system is cynomolgus monkey PBMCs. In words: Cytokine response by primary cynomolgus monkey PBMCs stimulated with LPS. The conditions noted are these: Macaca fascicularis, PBMC, 100 ng/ml LPS 20 h. In kind it is cell-based, cynomolgus monkey (M. fascicularis). The procedure: Freshly isolated cynomolgus monkey (M. fascicularis) peripheral blood mononuclear cells (PBMCs) were purchased from SNBL (Everett, Wash.). Cells were seeded at 1.8e6 cells/ml in RPMI 1640 (Life Technologies, Grand Island, N.Y.) containing 10% (v/v) charcoal-dextran treated, heat inactivated FBS (Omega Scientific, Tarzana, Calif.), 0.05 mM 2-Mercaptoethanol (Sigma-Aldrich, St. Louis, Mo.), and 1×Pen/Strep Amphotericin B (Lonza, Allendale, N.J.). Cells were pre-treated with 0.1% DMSO or with a test compound for 1 h at 37° C. in a humidified atmosphere at 5% CO2. Compounds were tested at 10 μM down by ⅕ in a 4-point serial dilution series. Cells were then stimulated with 100 ng/ml LPS from E. coli 0111:B4 (EMD Millipore, Billerica, Mass.) for 20 h at 37° C. in a humidified atmosphere at 5% CO2. Supernatant was collected and analyzed using the Milliplex Map Non-human Primate Cytokine Magnetic Bead Panel Kit (EMD Millipore) as per manufacturer's protocols. Magnetic beads were read on the Bio-Plex MAGPIX multiplex reader instrument using the accompanying xPONENT 4.2 acquisition software (Bio-Rad Laboratories, Hercules, Calif.). Data were analyzed via the Bio-Plex Manager software v6.1 (Bio-Rad Laboratories).

The test system of another assay is human PBMCs. The assay can be described thus: Cytokine response by primary human PBMCs stimulated with PMA/ionomycin or LPS. In kind it is cell-based. To be noted: PBMC. The method, then:
Freshly isolated human PBMCs were purchased from Astarte Biologics (Redmond, Wash.). Cells were seeded at 2e6 cells/ml in RPMI 1640 (Life Technologies, Grand Island, N.Y.) containing 10% (v/v) charcoal-dextran treated, heat inactivated FBS (Omega Scientific, Tarzana, Calif.), 0.05 mM 2-Mercaptoethanol (Sigma-Aldrich, St. Louis, Mo.), and 1×Pen/Strep Amphotericin B (Lonza, Allendale, N.J.). Cells were pre-treated with 0.1% DMSO or with test compounds for 1 h at 37° C. in a humidified atmosphere at 5% CO2. Compounds were tested at 10 μM down by ⅕ in a 4-point serial dilution series. Cells were then stimulated with either 50 ng/ml phorbol 12-myristate 13-acetate (PMA)(Sigma-Aldrich)+1 μg/ml ionomycin (Life Technologies) or with 100 ng/ml LPS from E. coli 0111:B4 (EMD Millipore, Billerica, Mass.) for 20 h at 37° C. in a humidified atmosphere at 5% CO2. Supernatant was collected and analyzed using the Bio-Plex Pro Human Cytokine 17-Plex Panel (Bio-Rad Laboratories, Hercules, Calif.) as per manufacturer's protocols. Magnetic beads were read on the Bio-Plex MAGPIX multiplex reader instrument using the accompanying xPONENT 4.2 acquisition software (Bio-Rad Laboratories). Data were analyzed via the Bio-Plex Manager software v6.1 (Bio-Rad Laboratories).

A further assay addresses T1, BRD4 (Homo sapiens, UniProt O60885).
T1 construct: read out by qPCR of the phage DNA
In words: Bromodomain binding assay: BRD4. The procedure:
(§1) T7 phage strains displaying bromodomains were grown in parallel in 24-well blocks in an E. coli host derived from the BL21 strain. E. coli were grown to log-phase and infected with T7 phage from a frozen stock (multiplicity of infection=0.4) and incubated with shaking at 32° C. until lysis (90-150 minutes). The lysates were centrifuged (5,000×g) and filtered (0.2 μm) to remove cell debris. […] The liganded beads were blocked with excess biotin and washed with blocking buffer (SeaBlock (Pierce), 1% BSA, 0.05 Tween 20, 1 mM DTT) to remove unbound ligand and to reduce non-specific phage binding. […] Test compounds (T62 and 46) were prepared as 1000× stocks in 100% DMSO and subsequently diluted 1:10 in monoethylene glycol (MEG) to create stocks at 100× the screening concentration (resulting stock solution is 10% DMSO/90% MEG). The compounds were then diluted directly into the assays such that the final concentration of DMSO and MEG were 0.1% and 0.9%, respectively. All reactions were performed in polystyrene 96-well plates in a final volume of 0.135 ml. […] The bromodomain concentration in the eluates was measured by qPCR. Compounds were assayed for binding activity against a panel of 40 bromodomain-containing proteins.

The target in a further assay is T2, ATAD2B (Homo sapiens, UniProt Q9ULI0).
T2 construct: T7 phage strains displaying bromodomains were grown in parallel; made in house; host or cells: E. coli host derived from BL21, infected with T7 phage
In words: Bromodomain binding assay: ATAD2B. The method, then: as §1

For a further assay, the target named is T3, BRD7 (Homo sapiens, UniProt Q9NPI1).
T3 construct: T7 phage strains displaying bromodomains were grown in parallel; made in house; host or cells: E. coli host derived from BL21, infected with T7 phage
The assay can be described thus: Bromodomain binding assay: BRD7. The procedure:
as §1

The next assay concerns the target T4, BRD9 (Homo sapiens, UniProt Q9H8M2).
T4 construct: T7 phage strains displaying bromodomains were grown in parallel; made in house; host or cells: E. coli host derived from BL21, infected with T7 phage
The assay can be described thus: Bromodomain binding assay: BRD9. The procedure:
as §1

The next assay addresses T5, CECR2 (Homo sapiens, UniProt Q9BXF3).
T5 construct: T7 phage strains displaying bromodomains were grown in parallel; made in house; host or cells: E. coli host derived from BL21, infected with T7 phage
The assay can be described thus: Bromodomain binding assay: CECR2. The procedure: as §1

A further assay deals with T6, PCAF (Homo sapiens, UniProt Q92831).
T6 construct: made in house; host or cells: E. coli host derived from the BL21 strain (T7 phage lysate)
The assay can be described thus: Bromodomain binding assay: PCAF. The method, then:
as §1

T4 sequence (Q9H8M2 136-240 limits assumed, species assumed): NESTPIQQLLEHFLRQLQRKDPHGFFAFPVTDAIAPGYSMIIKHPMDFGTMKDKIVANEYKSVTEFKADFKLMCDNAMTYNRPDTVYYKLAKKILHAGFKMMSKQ
T3 sequence (Q9NPI1 131-235 limits assumed, species assumed): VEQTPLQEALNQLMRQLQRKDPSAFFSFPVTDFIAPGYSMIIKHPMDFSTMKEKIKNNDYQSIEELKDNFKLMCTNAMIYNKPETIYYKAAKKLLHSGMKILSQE
T6 sequence (Q92831 723-827 limits assumed): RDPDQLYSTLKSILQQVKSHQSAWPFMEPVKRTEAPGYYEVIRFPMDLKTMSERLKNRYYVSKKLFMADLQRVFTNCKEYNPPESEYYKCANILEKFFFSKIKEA
T5 sequence (Q9BXF3 434-538 limits assumed, species assumed): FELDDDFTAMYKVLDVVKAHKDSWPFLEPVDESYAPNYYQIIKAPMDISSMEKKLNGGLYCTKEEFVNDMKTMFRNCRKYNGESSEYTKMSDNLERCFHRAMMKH
T2 sequence (Q9ULI0 951-1066 limits assumed, species assumed): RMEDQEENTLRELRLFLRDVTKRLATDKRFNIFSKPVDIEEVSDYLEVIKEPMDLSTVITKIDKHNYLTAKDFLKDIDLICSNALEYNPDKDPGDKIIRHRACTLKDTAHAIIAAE

Take `CCOc1cc(C(=O)N2CCCN(C)CC2)ccc1Nc1cc2c(cn1)N(C)C(=O)c1ccccc1N2C` [Compound 8]: the EC50 stood at 0.58 µM in the assay on cynomolgus monkey PBMCs (read-out: EC50 (μM) under LPS stimulation, G-CSF); 0.5 µM in the assay on cynomolgus monkey PBMCs (read-out: EC50 (μM) under LPS stimulation, GM-CSF); 0.55 µM in the assay on cynomolgus monkey PBMCs (read-out: EC50 (μM) under LPS stimulation, IFN-γ); 0.71 µM in the assay on cynomolgus monkey PBMCs (read-out: EC50 (μM) under LPS stimulation, IL-1ra); 0.47 µM in the assay with cynomolgus monkey PBMCs (read-out: EC50 (μM) under LPS stimulation, IL-1β); 1.29 µM with cynomolgus monkey PBMCs (read-out: EC50 (μM) under LPS stimulation, IL-4). In addition, the EC50 in the assay on cynomolgus monkey PBMCs (read-out: EC50 (μM) under LPS stimulation, IL-6) was 1.42 µM; in the assay on cynomolgus monkey PBMCs (read-out: EC50 (μM) under LPS stimulation, IL-8) it was 0.98 µM; in the assay with cynomolgus monkey PBMCs (read-out: EC50 (μM) under LPS stimulation, IL-10) it was 0.52 µM; in the assay with cynomolgus monkey PBMCs (read-out: EC50 (μM) under LPS stimulation, IL-12/IL-23 (p40)) it was 0.75 µM; in the assay on cynomolgus monkey PBMCs (read-out: EC50 (μM) under LPS stimulation, MCP-1), 0.32 µM; in the assay with cynomolgus monkey PBMCs (read-out: EC50 (μM) under LPS stimulation, MIP-1α) it was 1.63 µM. In addition, the EC50 was determined as 4.45 µM in the assay on cynomolgus monkey PBMCs (read-out: EC50 (μM) under LPS stimulation, MIP-1β); 0.63 µM in the assay with cynomolgus monkey PBMCs (read-out: EC50 (μM) under LPS stimulation, TNF-α); 0.9 µM with cynomolgus monkey PBMCs (read-out: EC50 (μM) under LPS stimulation, VEGF); 1.14 µM in the assay with cynomolgus monkey PBMCs (read-out: EC50 (μM) under LPS stimulation, sCD40L); 4.95 µM in the assay with human PBMCs (100 ng/ml LPS 20 h, read-out: EC50 (μM) under LPS stimulation, G-CSF); 4.04 µM with human PBMCs (100 ng/ml LPS 20 h, read-out: EC50 (μM) under LPS stimulation, GM-CSF). The EC50 was 1.67 µM with human PBMCs (100 ng/ml LPS 20 h, read-out: EC50 (μM) under LPS stimulation, IFNγ); 3.92 µM in the assay with human PBMCs (100 ng/ml LPS 20 h, read-out: EC50 (μM) under LPS stimulation, IL-1β); 7.93 µM with human PBMCs (100 ng/ml LPS 20 h, read-out: EC50 (μM) under LPS stimulation, IL-2); 10.9 µM in the assay on human PBMCs (100 ng/ml LPS 20 h, read-out: EC50 (μM) under LPS stimulation, IL-4); 4.49 µM in the assay with human PBMCs (100 ng/ml LPS 20 h, read-out: EC50 (μM) under LPS stimulation, IL-6); 9.89 µM in the assay with human PBMCs (100 ng/ml LPS 20 h, read-out: EC50 (μM) under LPS stimulation, IL-7). Moreover, the EC50 in the assay with human PBMCs (100 ng/ml LPS 20 h, read-out: EC50 (μM) under LPS stimulation, IL-10) is 1.09 µM; with human PBMCs (100 ng/ml LPS 20 h, read-out: EC50 (μM) under LPS stimulation, IL-12), 1.95 µM; with human PBMCs (100 ng/ml LPS 20 h, read-out: EC50 (μM) under LPS stimulation, IL-13), 6.9 µM; in the assay with human PBMCs (100 ng/ml LPS 20 h, read-out: EC50 (μM) under LPS stimulation, IL-17A) it was more than 10 µM; in the assay with human PBMCs (100 ng/ml LPS 20 h, read-out: EC50 (μM) under LPS stimulation, MCP-1) it was 0.237 µM; in the assay with human PBMCs (100 ng/ml LPS 20 h, read-out: EC50 (μM) under LPS stimulation, TNFα), 0.304 µM. Besides, the EC50 in the assay on human PBMCs (PMA/ionomycin 20 h, read-out: EC50 (μM) under PMA/ionomycin stimulation, GM-CSF) is 4.67 µM; in the assay on human PBMCs (PMA/ionomycin 20 h, read-out: EC50 (μM) under PMA/ionomycin stimulation, IL-4), more than 10 µM; with human PBMCs (PMA/ionomycin 20 h, read-out: EC50 (μM) under PMA/ionomycin stimulation, IL-5), 3.88 µM; with human PBMCs (PMA/ionomycin 20 h, read-out: EC50 (μM) under PMA/ionomycin stimulation, IL-6), 2.35 µM; in the assay on human PBMCs (PMA/ionomycin 20 h, read-out: EC50 (μM) under PMA/ionomycin stimulation, IL-7), more than 10 µM; in the assay with human PBMCs (PMA/ionomycin 20 h, read-out: EC50 (μM) under PMA/ionomycin stimulation, IL-10) it was 0.627 µM. Moreover, the EC50 in the assay on human PBMCs (PMA/ionomycin 20 h, read-out: EC50 (μM) under PMA/ionomycin stimulation, IL-12) is more than 10 µM; with human PBMCs (PMA/ionomycin 20 h, read-out: EC50 (μM) under PMA/ionomycin stimulation, IL-13), 4.22 µM; with human PBMCs (PMA/ionomycin 20 h, read-out: EC50 (μM) under PMA/ionomycin stimulation, IL-17A) it was more than 10 µM; in the assay with human PBMCs (PMA/ionomycin 20 h, read-out: EC50 (μM) under PMA/ionomycin stimulation, MCP-1), 0.401 µM; in the assay on human PBMCs (PMA/ionomycin 20 h, read-out: EC50 (μM) under PMA/ionomycin stimulation, MIP-1β), 4.28 µM; in the assay with human PBMCs (PMA/ionomycin 20 h, read-out: EC50 (μM) under PMA/ionomycin stimulation, TNFα) it was 8.17 µM.
Take `CCOc1cc(C(=O)N[C@H]2CC[C@H](O)CC2)ccc1Nc1cc2c(cn1)N(C)C(=O)c1ccccc1N2C` [Compound T62]: the Kd (commonly the equilibrium constant for the complex coming apart) on BRD4 is 97 nM; at ATAD2B it was more than 20 µM; at BRD7 it was more than 20 µM; at BRD9, more than 20 µM; at CECR2 it was more than 20 µM; at PCAF, more than 20 µM.
